Data from patent US6054114A, “Organometallic ligands for the localization and quantification of amyloid in vivo and in vitro” (priority 1997, dated 2000).
Read-outs that look alike come from different tables or passages of the source.

How the values were obtained:
β1-40 amyloid fibrils = target: T1, β1-40 amyloid fibrils (Homo sapiens, UniProt P05067); assay: Competitive displacement of labeled complexes 3 or 6 from β1-40 fibrils; type: binding; conditions: 25° C., pH 7.4, mean (±S.D.)
T1 construct: Aggregated β1-40 peptides (Bachem, Torrance, Calif); purchased Bachem, Torrance, Calif
T1 sequence (P05067 672-711 limits assumed): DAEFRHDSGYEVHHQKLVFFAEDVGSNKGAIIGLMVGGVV
Experimental: Dissociation constants, IC50 and inhibition constants were determined. Aggregated β1-40 peptides (Bachem, Torrance, Calif.; peptide concentrations were determined by amino acid analysis) were prepared by stirring supersaturated solutions of peptide (100 μM) in the standard buffer (10 mM NaH2 PO4, pH 7.4) at room temperature for at least 72 h and remained stirring while aliquots were taken. […] The solution was briefly vortexed and allowed to equilibrate at room temperature for 2 h. The solution was centrifuged for 1 min at 14,000 rpm (16,000 g) and the amount of the labeled ligand bound ([B]) to fibrils was obtained by measuring the radioactivity of the pellets or calculated using the equation [B] =[T] - [F] where [F] is the concentration of the labeled ligand in the supernatant (i.e., amount unbound or free) and [T] is the total amount of the labeled ligand added. A Scatchard plot was used to obtain [B]max (apparent maximum amount of the labeled ligand bound to fibrils) and Kd. (Freifelder, D., Physical Biochemistry: Applications to Biochemistry and Molecular Biology, 2nd ed.; W. H. Freeman & Co., N. Y. Chapter 10, p. 654 (1982)). The [B]max was based on total protein concentration. […] The IC50 value was used to calculate the inhibition constant Ki. (Cheng et al., Biochem. Pharmacol. 22:3099-3108 (1973)).
The relative affinities (Ki 's) of the free bipyridyl ligands were determined by displacement of complexes 3 or 6 (see Table 1). […] The stoichiometry of saturation, as estimated by Scatchard analysis of the binding curves, differed slightly, with 2.7 moles of 3 and 1.6 moles of 6 bound per mole of β1-40.

Peptide solubility = type: physicochemical; conditions: 10 mm nah2po4 buffer, pH 7.4
[1] = [Tc(CNtBu)4 (bpcg)]^+ (6) as labeled ligand, read-out: Inhibition constant (Ki) for β1-40 fibrils
[2] = [Tc(CNtBu)4 (bpcr)]^+ (3) as labeled ligand, read-out: Inhibition constant (Ki) for β1-40 fibrils

| Compound | Ki (β1-40 amyloid fibrils; Inhibition constant (Ki) for β1-40 fibrils, [Tc(CNtBu)4 (bpcg)]^+ (6) as labeled ligand) [nM] | Ki (β1-40 amyloid fibrils; Inhibition constant (Ki) for β1-40 fibrils, [Tc(CNtBu)4 (bpcr)]^+ (3) as labeled ligand) [nM] | Ki (β1-40 amyloid fibrils; [1]) [nM] | Ki (β1-40 amyloid fibrils; [2]) [nM] | solubility (Peptide solubility) |
| --- | --- | --- | --- | --- | --- |
| Nc1c(/N=N/c2ccc(-c3ccc(/N=N/c4cc(S(=O)(=O)O)c5ccccc5c4N)cc3)cc2)cc(S(=O)(=O)O)c2ccccc12 [Congo Red (1), Congo Red, reference compound] | 560 | 460 |  |  |  |
| Nc1c(N=Nc2ccc(-c3ccc(N=Nc4cc(S(=O)(=O)O)c5ccccc5c4N)cn3)nc2)cc(S(=O)(=O)O)c2ccccc12 [compound 2, Bipyridyl-Congo Red] |  |  | 480 | 510 |  |
| O=C(O)c1cc(N=Nc2ccc(-c3ccc(N=Nc4ccc(O)c(C(=O)O)c4)cn3)nc2)ccc1O [compound 5, bipyridal-Chrysamine G] |  |  | 420 | 760 |  |
| β1-40: β1-40 amyloid peptide (Bachem), C-terminally truncated relative of Aβ1-42 |  |  |  |  | ca. 1 μM |
